Measurements as given in US10246421B2, “Indazolyl- and indolyl-benzamide derivatives” (ESANEX, INC., priority 2014, dated 2019).

Columns and labels:
Assay type in all cases: cell-based
A375 = assay: Cell proliferation assay, A375; settings: Homo sapiens, A-375
Procedure: (§1) A panel of cancer cell lines may be obtained from the DCTP Tumor Repository, National Cancer Institute (Frederick, Md.) or ATCC (Rockville, Md.). Cell cultures are maintained in Hyclone RPMI 1640 medium (Logan, Utah) supplemented with 10% fetal bovine serum and 20 mM HEPES buffer, final pH 7.2, at 37° C. with a 5% CO2 atmosphere. Cultures are maintained at sub-confluent densities. Human umbilical vein endothelial cells (HUVEC) are purchased from Clonetics, a division of Cambrex (Walkersville, Md.). Cultures are established from cryopreserved stocks using Clonetics EGM-2 medium supplemented with 20 mM HEPES, final pH 7.2, at 37° C. with a 5% CO2 atmosphere.
(§2) For proliferation assays, cells are seeded with the appropriate medium into 96 well plates at 1,000-2,500 cells per well, depending on the cell line, and are incubated overnight. The following day, test compound, DMSO solution (negative control), or Actinomycin D (positive control) is added to the appropriate wells as 10× concentrated stocks prepared in phosphate buffered saline. The cell plates are then incubated for an additional 2-5 days, depending on the cell line, to allow proliferation to occur. To measure cell density, 50 μL of WST-1 solution (Roche Applied Science, IN) diluted 1:5 in phosphate buffered saline is added to each well, and the cells incubated for an additional 1-5 hrs, again depending on the cell line. Optical density is determined for each well at […] using a Tecan GeniosPro plate reader (RTP, NC). The percentage of cell growth is determined by comparing the cell growth in the presence of test compounds to the cells treated with DMSO vehicle (control, 100% growth) and cells treated with Actinomycin D (10 μM, 0% growth).
(§3) Immediately after the WST-1 determination, the medium is removed from the cell lines, and the plates stored at −80° C. Using these assay plates, relative amounts of DNA in each well are determined using the Cyquant DNA assay kit from […] (Eugene, Oreg.) following the manufacturer's directions. Results for each compound treatment are compared to DMSO vehicle control (100%) and 10 μM Actinomycin D treated cells (0%).

HSP70 = assay: A375 imaging assay, HSP70 induction; settings: Homo sapiens, A-375, 24 hours treatment
Procedure: (§4) Cells of multiple human tumor lines were plated in Packard Viewplate-96, incubated overnight, and then treated with test compound for 24 hours. Following treatment, cell monolayers were fixed using standard methods and treated with antibodies targeted to the indicated Hsp90 clients. Primary antibodies were detected using a fluoroscene isothiocyanate (FITC)-conjugated anti-mouse antibody and a tetramethyl rhodamine isothiocyanate (TRITC)-conjugated anti-rabbit antibody. Deoxyribonucleic acid was stained and images were obtained using the compartmental analysis algorithm on a Cellomics Array scan 4.5 according to manufacturer instructions. Average intensities for vehicle control and treated wells were compared with test compound-treated cells to determine the 50% efficacious concentration (EC50) values. This methodology was augmented with an alternative method of immune-detection for p-Akt levels. Luminex detection of p-Akt used to directly assay the client effect, Akt, as well as the competency of the signaling cascade, as indicated by phosphorylation of S6 kinase.

NCI-H460 = assay: Cell proliferation assay, NCI-H460; settings: Homo sapiens
Procedure: as §1, §2, §3

pErk = assay: AU565 imaging assay, pErk inhibition; settings: Homo sapiens, 24 hours treatment
Procedure: as §4

PC-3 = assay: Cell proliferation assay, PC-3; settings: Homo sapiens
Procedure: as §1, §2, §3

Her2 = assay: AU565 imaging assay, Her2 degradation; settings: Homo sapiens, 24 hours treatment
Procedure: as §4

pS6 = assay: A375 imaging assay, pS6 inhibition; settings: Homo sapiens, A-375, 24 hours treatment
Procedure: as §4

K562 = assay: Cell proliferation assay, K562; settings: Homo sapiens
Procedure: as §1, §2, §3

IC50 (A375) [nM]	EC50 (HSP70) [nM]	IC50 (NCI-H460; NCI-H460 (Table 2B)) [nM]	EC50 (pErk) [nM]	IC50 (PC-3) [nM]	EC50 (Her2) [nM]	EC50 (pS6) [nM]	IC50 (K562) [nM]	IC50 (NCI-H460; NCI-H46 (Table 2A)) [nM]	Compound
242 ± 192	45.4	1380 ± 425	322	< 80	205	73.8	172 ± 72.3		Cc1nn(-c2cc(F)c(C(N)=O)c(NC3CCOC3)c2)c2c1C=CC(C)(C)C2 (stereo not drawn) [EX-012, 2-fluoro-6-(tetrahydrofuran-3-ylamino)-4-(3,6,6-trimethyl-6,7-dihydro-1H-indazol-1-yl)benzamide]
448 ± 50.2	346	1910 ± 513	820	344 ± 10.2	667	241	359 ± 42.4		Cc1nn(-c2cc(F)c(C(N)=O)c(N[C@H]3CCCC[C@@H]3O)c2)c2c1CCC(C)(C)C2 [EX-015, 2-fluoro-6-((1S,2S)-2-hydroxycyclohexylamino)-4-(3,6,6-trimethyl-4,5,6,7-tetrahydro-1H-indazol-1-yl)benzamide]
2580				1550			1690	2130	CC1=CC(C)(C)Cc2c1c(C)nn2-c1cc(F)c(C(N)=O)c(N[C@H]2CC[C@H](O)CC2)c1 [EX-017, 2-fluoro-6-((1R,4R)-4-hydroxycyclohexylamino)-4-(3,4,6,6-tetramethyl-6,7-dihydro-1H-indazol-1-yl)benzamide]
1 ± 0.466	0.092	41.4 ± 18.4	1.5	74.1 ± 70.6	0.366	4.3	92.3 ± 32.7		Cc1nn(-c2cc(F)c(C(N)=O)c(N[C@H]3CCC[C@@H]3O)c2)c2c1CCC(C)(C)C2 [EX-007, 2-fluoro-6-((1S,2S)-2-hydroxycyclopentylamino)-4-(3,6,6-trimethyl-4,5,6,7-tetrahydro-1H-indazol-1-yl)benzamide]
9520				5120			4280	8590	Cc1nn(-c2cc(F)c(C(N)=O)c(NC3CCCCC3)c2)c2c1CCC(C)(C)C2 [EX-011, 2-(cyclohexylamino)-6-fluoro-4-(3,6,6-trimethyl-4,5,6,7-tetrahydro-1H-indazol-1-yl)benzamide]
630 ± 106	464	1370 ± 325	457	364 ± 7.8	329	115	363 ± 57.4		Cc1nn(-c2cc(F)c(C(N)=O)c(N[C@@H]3CCCC[C@H]3O)c2)c2c1C=CC(C)(C)C2 [EX-014, 2-fluoro-6-((1R,2R)-2-hydroxycyclohexylamino)-4-(3,6,6-trimethyl-6,7-dihydro-1H-indazol-1-yl)benzamide]
76 ± 43.1	37.2		101	44.1 ± 6.1	35.8	28.5	277 ± 81.8	167 ± 22.4	Cc1nn(-c2cc(F)c(C(N)=O)c(N[C@H]3CC[C@H](O)CC3)c2)c2c1CCC(C)(C)C2 [EX-009, 2-fluoro-6-((1r,4r)-4-hydroxycyclohexylamino)-4-(3,6,6-trimethyl-4,5,6,7-tetrahydro-1H-indazol-1-yl)benzamide]
10200				6490			6340	6550	Cc1nn(-c2cc(F)c(C(N)=O)c(N[C@H]3CC[C@H](O)CC3)c2)c2c1C(C)CC(C)(C)C2 (stereo partly drawn) [EX-016, 2-fluoro-6-((1R,4R)-4-hydroxycyclohexylamino)-4-(3,4,6,6-tetramethyl-4,5,6,7-tetrahydro-1H-indazol-1-yl)benzamide]
69.7 ± 9.3	54		112	40.5 ± 7.9	51	59.1	250 ± 77.5	142 ± 59	Cc1nn(-c2cc(F)c(C(N)=O)c(N[C@H]3CC[C@H](O)CC3)c2)c2c1C=CC(C)(C)C2 [EX-008, 2-fluoro-6-((1r,4r)-4-hydroxycyclohexylamino)-4-(3,6,6-trimethyl-6,7-dihydro-1H-indazol-1-yl)benzamide]
176 ± 145	77.7	3170 ± 791	360	160 ± 81.4	329	156	242 ± 118		Cc1nn(-c2cc(F)c(C(N)=O)c(N[C@H]3CCOC3)c2)c2c1CCC(C)(C)C2 [EX-013, (S)-2-fluoro-6-(tetrahydrofuran-3-ylamino)-4-(3,6,6-trimethyl-4,5,6,7-tetrahydro-1H-indazol-1-yl)benzamide]

Compound	IC50 (A375) [nM]	EC50 (HSP70) [nM]	IC50 (NCI-H460; NCI-H460 (Table 2B)) [nM]	EC50 (pErk) [nM]	IC50 (PC-3) [nM]	EC50 (Her2) [nM]	EC50 (pS6) [nM]	IC50 (K562) [nM]	IC50 (NCI-H460; NCI-H46 (Table 2A)) [nM]
Cc1nn(-c2cc(F)c(C(N)=O)c(NC3CCCCC3)c2)c2c1C=CC(C)(C)C2 [EX-010, 2-(cyclohexylamino)-6-fluoro-4-(3,6,6-trimethyl-6,7-dihydro-1H-indazol-1-yl)benzamide]	2260				3310			48000	5080
